Assay results taken from US10925858B2, “S-nitrosoglutathione (GSNO) and GSNO reductase inhibitors for use in therapy” (MUSC FOUNDATION FOR RESEARCH DEVELOPMENT, priority 2017, dated 2021).

Tested on: IFN-γ, IL-4, IL-17, IL-10
Experiment: ELISA of CD4+ T cell subset specific cytokines in culture media of CNS derived lymphocytes of EAE mice
Type: in vivo, C57BL/6 mice
Details: N6022 1 mg/kg/day
Experimental: Female C57BL/6 mice of 8-12 weeks of age, purchased from Jackson Laboratory, were provided with food and water ad libitum and were kept in pathogen free animal care facility of Medical University of South Carolina (MUSC) throughout the study. All procedures were conducted in accordance with accepted standards of humane care as approved by the Institutional Animal Care and Use Committee (Approved number: AR #1644). EAE was induced as described previously (Nath et al., 2009). Briefly, mice were immunized subcutaneously in the flank regions with MOG35-55 peptide (MOG; 200 μg; Peptide International) emulsified (1:1) in 100 ul complete Freund's adjuvant (CFA) on day 0 and day 7. Additionally, 300 ng of Pertussis toxin (Sigma-Aldrich, St. Louis, Mo.) was given on day 0 and day 2 by i.p. injection. Pertussis toxin used as per the standardized protocol reported by us and other investigators for the induction of EAE (Nath et al., 2009). Similarly, healthy control group received subcutaneous injection of PBS and CFA emulsion on day 0 and day 7. Clinical signs of EAE were scored by examiners blinded to experimental treatments using the following scale: 0=no clinical signs of disease; 1=piloerection and sluggish; 2=limp tail (ataxia); 2.5=ataxia with partial hind limb paralysis; 3=full paralysis of hind limb; 3.5=full paralysis of hind limb with paralysis of one fore limb; 4=full paralysis of two limbs; 4.5=moribund stage; 5=death. […] The drug treatments were continued till the termination of the study (day 41 post immunization). EAE animals without drug treatment received PBS. Likewise, healthy controls received vehicle.
Fluorescence flow cytometry analysis for each subset of CD4+ T cells (TH1, TH2, TH17, CD4+CD25+ FOXP3+ Treg, and CD4+CD25+ FOXP3− Treg) were performed based on our previous report with modification (Nath et al., 2004). Briefly, control mice, EAE mice. EAE mice treated with GSNO. […] Following the preparation of single cell suspension, red blood cells were lysed with Pharma lyse buffer (BD Pharmingen™) and the remaining spleen cells were washed with RPMI 1640. The isolated CD4+ T cells were then resuspended with complete RPMI-media in 12-well plates (5×10^6 cells' 2 ml per well) containing MOG peptide (25 μg/ml) for 48 hrs. […] The cell pellets were washed with cell staining solution (ebioscience, Waltham, Mass. USA) and stained with fluorescence labeled antibody specific to IFN-γ for TH1. […] The cells were counted and analyzed using Beackman Coulter instrument (Beckman Coulter, Inc., Brea, Calif., USA).
ELISA assay was performed for analysis of CD4+ T cell subset specific cytokines released from cultured cells or spinal cord tissues. […] The equal amounts of proteins were analyzed for ELISA for IFN-γ. […]

Cc1cc(C(N)=O)ccc1-n1c(CCC(=O)O)ccc1-c1ccc(-n2ccnc2)cc1 [N6022, reference compound]
IFN-γ in culture media of CNS derived lymphocytes: decreased | IL-4 release of CNS derived lymphocytes: increased | IL-17 in culture media of CNS derived lymphocytes: decreased | IL-10 expression of CNS derived lymphocytes (vs control levels): increased
